What is called EC50 is the concentration that produces a half-maximal response. For orientation: IC50 means the concentration needed to halve the response being measured. The term inhibition denotes how much of the control response was suppressed.

The results in this text go back to ChEMBL document CHEMBL6109056, “Disrupted target binding with acryloyl group as potential Bcr-Abl/C-Src dual kinase inhibitor optimization strategies with maintained antitumor activity” (Bioorg Med Chem Lett, 2025).

For test [1], the system named is A549. Description: Cytotoxicity against human A549 cells assessed as growth inhibition incubated for 72 hrs by MTT assay. The class given is functional, cell-based. To be noted: A549, 72 h. (Formazan colour is commonly taken as a measure of viable cells.)
Test [2] is described as follows: Inhibition of C-Src (unknown origin) in presence of ATP. Details: species or system Homo sapiens.
Test [3] concerns MCF7. Description: Cytotoxicity against human MCF7 cells assessed as growth inhibition incubated for 72 hrs by MTT assay. To be noted: MCF7, 72 h. The class given is functional, cell-based.
Test [4] deals with K562. Description: Cytotoxicity against human K562 cells assessed as growth inhibition incubated for 72 hrs by MTT assay. The class given is functional, cell-based. To be noted: K562, 72 h.
For another test, the target named is Bcr/Abl fusion protein (Homo sapiens, UniProt P00519). In words: Inhibition of wild-type Bcr-Abl (unknown origin) in presence of ATP. The class given is protein assay.
Chain of Bcr/Abl fusion protein (P00519 whole entry, the tested form may be a part): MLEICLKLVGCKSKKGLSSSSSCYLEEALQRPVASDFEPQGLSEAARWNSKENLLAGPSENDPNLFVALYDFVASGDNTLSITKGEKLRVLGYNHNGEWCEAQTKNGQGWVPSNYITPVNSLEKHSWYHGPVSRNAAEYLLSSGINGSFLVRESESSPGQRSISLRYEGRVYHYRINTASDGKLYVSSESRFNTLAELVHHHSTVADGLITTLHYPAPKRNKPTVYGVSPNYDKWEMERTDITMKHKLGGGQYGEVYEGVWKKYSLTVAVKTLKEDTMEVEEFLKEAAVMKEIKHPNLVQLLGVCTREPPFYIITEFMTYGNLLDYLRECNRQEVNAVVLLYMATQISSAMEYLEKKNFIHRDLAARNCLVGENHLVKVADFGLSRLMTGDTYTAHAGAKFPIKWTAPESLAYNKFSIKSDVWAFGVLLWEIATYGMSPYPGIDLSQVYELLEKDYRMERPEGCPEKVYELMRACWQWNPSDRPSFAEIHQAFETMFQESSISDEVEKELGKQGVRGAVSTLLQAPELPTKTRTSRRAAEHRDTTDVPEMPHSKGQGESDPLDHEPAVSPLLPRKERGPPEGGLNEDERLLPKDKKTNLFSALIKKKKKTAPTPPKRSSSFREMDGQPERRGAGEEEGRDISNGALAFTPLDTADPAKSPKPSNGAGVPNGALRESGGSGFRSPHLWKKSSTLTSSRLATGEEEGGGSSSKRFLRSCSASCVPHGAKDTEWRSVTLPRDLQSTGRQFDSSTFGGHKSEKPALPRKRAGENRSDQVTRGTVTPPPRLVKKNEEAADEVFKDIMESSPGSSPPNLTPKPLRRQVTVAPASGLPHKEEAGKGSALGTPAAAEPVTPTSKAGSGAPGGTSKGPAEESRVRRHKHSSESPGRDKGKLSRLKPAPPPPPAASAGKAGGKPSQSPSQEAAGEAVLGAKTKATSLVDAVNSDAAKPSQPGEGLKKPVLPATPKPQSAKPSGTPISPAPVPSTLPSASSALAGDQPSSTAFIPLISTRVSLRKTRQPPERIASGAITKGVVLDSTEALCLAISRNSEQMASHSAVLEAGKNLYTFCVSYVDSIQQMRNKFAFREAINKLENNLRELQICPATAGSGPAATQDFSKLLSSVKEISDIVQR
Chain of Bcr/Abl fusion protein (P11274 whole entry, further chain, the tested form may be a part): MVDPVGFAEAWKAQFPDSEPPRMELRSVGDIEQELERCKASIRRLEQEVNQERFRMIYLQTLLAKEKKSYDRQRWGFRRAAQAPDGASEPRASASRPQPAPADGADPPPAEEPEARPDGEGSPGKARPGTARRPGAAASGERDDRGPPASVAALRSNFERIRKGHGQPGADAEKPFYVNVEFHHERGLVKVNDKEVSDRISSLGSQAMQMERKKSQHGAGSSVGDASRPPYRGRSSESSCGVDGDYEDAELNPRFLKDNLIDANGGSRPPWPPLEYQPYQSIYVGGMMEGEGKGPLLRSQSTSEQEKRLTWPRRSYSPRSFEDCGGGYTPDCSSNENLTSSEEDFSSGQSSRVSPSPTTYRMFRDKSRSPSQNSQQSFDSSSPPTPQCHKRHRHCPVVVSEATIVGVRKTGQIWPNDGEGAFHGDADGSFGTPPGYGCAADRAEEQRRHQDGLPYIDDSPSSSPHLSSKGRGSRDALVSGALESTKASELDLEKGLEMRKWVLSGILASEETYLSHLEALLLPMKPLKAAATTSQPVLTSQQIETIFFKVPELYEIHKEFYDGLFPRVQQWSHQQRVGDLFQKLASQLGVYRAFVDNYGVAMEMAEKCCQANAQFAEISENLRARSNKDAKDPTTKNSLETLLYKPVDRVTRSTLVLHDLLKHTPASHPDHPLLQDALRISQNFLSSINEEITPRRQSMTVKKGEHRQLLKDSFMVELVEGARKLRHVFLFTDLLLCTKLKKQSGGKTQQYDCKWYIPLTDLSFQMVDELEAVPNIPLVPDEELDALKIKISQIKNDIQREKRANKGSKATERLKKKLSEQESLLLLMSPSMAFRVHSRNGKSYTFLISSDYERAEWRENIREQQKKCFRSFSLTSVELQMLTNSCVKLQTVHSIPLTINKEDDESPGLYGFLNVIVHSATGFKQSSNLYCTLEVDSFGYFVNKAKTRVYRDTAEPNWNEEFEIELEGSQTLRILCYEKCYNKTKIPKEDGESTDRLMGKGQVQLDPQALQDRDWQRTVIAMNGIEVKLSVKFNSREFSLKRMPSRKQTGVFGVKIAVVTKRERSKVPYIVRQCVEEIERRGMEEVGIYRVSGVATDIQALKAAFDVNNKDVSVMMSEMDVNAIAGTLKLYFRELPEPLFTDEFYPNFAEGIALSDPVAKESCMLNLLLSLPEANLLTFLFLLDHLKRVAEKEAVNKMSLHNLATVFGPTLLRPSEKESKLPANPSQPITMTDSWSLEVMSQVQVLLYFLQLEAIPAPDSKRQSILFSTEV
Test [5] deals with HCT-116. Description: Cytotoxicity against human HCT-116 cells assessed as growth inhibition incubated for 72 hrs by MTT assay. To be noted: HCT-116, 72 h. The class given is functional, cell-based.
Test [6] concerns the target Bcr/Abl fusion protein (Homo sapiens) (UniProt P00519+P11274). Description: Inhibition of wild-type Bcr-Abl (unknown origin) at 10 uM in presence of ATP relative to control. The class given is protein assay.
The species entered for the next test is Homo sapiens. In words: Inhibition of C-Src (unknown origin) at 10 uM in presence of ATP relative to control.
Test [7] relates to MCF7. In words: Cytotoxicity against human MCF7 cells assessed as growth inhibition at 10 uM incubated for 72 hrs by MTT assay relative to control. The class given is functional.
Test [8] relates to A549. In words: Cytotoxicity against human A549 cells assessed as growth inhibition at 10 uM incubated for 72 hrs by MTT assay relative to control. The class given is functional.
Test [9] relates to K562. Description: Cytotoxicity against human K562 cells assessed as growth inhibition at 10 uM incubated for 72 hrs by MTT assay relative to control. The class given is functional.
Test [10] deals with HCT-116. In words: Cytotoxicity against human HCT-116 cells assessed as growth inhibition at 10 uM incubated for 72 hrs by MTT assay relative to control. The class given is functional.

Chain of Bcr/Abl fusion protein (Homo sapiens) (P00519 whole entry, looked up, the tested form may be a part): as the sequence (P00519 whole entry, the tested form may be a part) above
Chain of Bcr/Abl fusion protein (Homo sapiens) (P11274 whole entry, looked up, the tested form may be a part): as the sequence (P11274 whole entry, further chain, the tested form may be a part) above

On to `C=CC(=O)N(c1cc(OC)c(Cl)cc1Cl)c1c(C#N)cnc2cc(OCCCN3CCOCC3)c(OC)cc12`, for which the EC50 stood at 4170 nM in the test on A549 [1], 7850 nM in the test with MCF7 [3] and 6390 nM with K562 [4]. The IC50 was 110 nM in [2] and 169 nM on Bcr/Abl fusion protein.
As to `COc1cc(Nc2c(C#N)cnc3cc(OCCCN4CCCCC4)c(OC)cc23)c(Cl)cc1Cl`, the EC50 in the test with A549 [1] is 8560 nM; in the test with K562 [4], 7330 nM; in the test with HCT-116 [5], 7990 nM. The IC50 is 0.11 nM in test [2] and 0.14 nM at Bcr/Abl fusion protein.
As for `COc1cc(Nc2c(C#N)cnc3cc(OC)c(OC)cc23)c(Cl)cc1Cl`, the IC50 amounted to 0.77 nM in [2] and 0.76 nM on Bcr/Abl fusion protein.
Taken in the same sequence, the figures for `C=CC(=O)N(c1cc(OC)ccc1Cl)c1c(C#N)cnc2cc(OC)c(OC)cc12` were 1840 nM and 569 nM.
On the same counts, the results for `COc1cc2ncc(C#N)c(Nc3ccc(Br)cc3Br)c2cc1OC` are 2440 nM and 5430 nM.
As for `C=CC(=O)N(c1ccccc1)c1c(C#N)cnc2cc(OC)c(OC)cc12`, the inhibition in test [6] was 7.1%; in the test filed under Homo sapiens, 9.5%.
`C=CC(=O)N(c1cc(OC)c(Cl)cc1Cl)c1c(C#N)cnc2cc(OCCCN3CCCCC3)c(OC)cc12`: the EC50 is 5500 nM with A549 [1], 3190 nM in the test on K562 [4] and 6380 nM in the test on HCT-116 [5]. In addition, the IC50 in test [2] worked out at 169 nM; at Bcr/Abl fusion protein, 214 nM.
Regarding `C=CC(=O)N(c1cc(OC)ccc1Cl)c1c(C#N)cnc2cc(OCCCN3CCOCC3)c(OC)cc12`, the inhibition at 10 µM in the test with MCF7 [7] was determined as 25%; in the test with A549 [8], 31%; in the test on K562 [9], 40%. The values for the IC50 (in [2]; at Bcr/Abl fusion protein) were 207 nM and 193 nM, respectively.
In the case of `COc1ccc(Cl)c(Nc2c(C#N)cnc3cc(OCCCN4CCOCC4)c(OC)cc23)c1`, the values for the EC50 in the test on A549 [1], in the test on MCF7 [3] and with K562 [4] were 7150 nM, 9340 nM and 1190 nM, respectively. For the same compound, the IC50 was determined as 0.33 nM in [2] and 0.23 nM at Bcr/Abl fusion protein.
For `C=CC(=O)N(c1cc(OC)ccc1Cl)c1c(C#N)cnc2cc(OCCCN3CCN(C)CC3)c(OC)cc12`, the inhibition at 10 µM with MCF7 [7] amounted to 40%; in the test on A549 [8], 32%. Further, the IC50 in [2] amounted to 484 nM; on Bcr/Abl fusion protein, 186 nM. The EC50 in the test with K562 [4] worked out at 9830 nM.
`C=CC(=O)N(c1cc(OC)c(Cl)cc1Cl)c1c(C#N)cnc2cc(OC)c(OC)cc12`: the IC50 in test [2] amounted to 863 nM; on Bcr/Abl fusion protein, 893 nM.
Regarding `COc1cc(Nc2c(C#N)cnc3cc(OCCCN4CCOCC4)c(OC)cc23)c(Cl)cc1Cl`, the EC50 in the test with A549 [1] stood at 7400 nM; in the test on MCF7 [3] it was 8670 nM; in the test with K562 [4] it was 6430 nM. Also, the IC50 in test [2] is 0.27 nM; on Bcr/Abl fusion protein, 0.42 nM.
On to `C=CC(=O)N(c1cc(OC)c(Cl)cc1Cl)c1c(C#N)cnc2cc(OCCCN3CCN(C)CC3)c(OC)cc12`, for which the EC50 amounted to 1440 nM in the test with A549 [1], 1060 nM in the test on K562 [4] and 4860 nM in the test on HCT-116 [5]. Moreover, the IC50 in test [2] was found to be 101 nM; on Bcr/Abl fusion protein, 56.2 nM.
With `C=CC(=O)N(c1ccc(Cl)cc1Cl)c1c(C#N)cnc2cc(OC)c(OC)cc12`, the figures for the IC50 (in test [2]; at Bcr/Abl fusion protein) were 2080 nM and 1330 nM, respectively.
Consider `COc1cc2ncc(C#N)c(Nc3ccccc3)c2cc1OC`, for which the values for the inhibition (in [6]; in the test filed under Homo sapiens) were 98.7% and 96.5%, respectively.
Regarding `COc1ccc(Cl)c(Nc2c(C#N)cnc3cc(OC)c(OC)cc23)c1`, the half-inhibitory concentration (IC50) in [2] came out at 0.89 nM; on Bcr/Abl fusion protein it was 0.64 nM.
For `COc1ccc(Cl)c(Nc2c(C#N)cnc3cc(OCCCN4CCN(C)CC4)c(OC)cc23)c1`, the EC50 with A549 [1] worked out at 4510 nM; in the test on MCF7 [3] it was 4490 nM. Besides, the IC50 was found to be 0.23 nM in test [2] and 0.06 nM at Bcr/Abl fusion protein. For the same compound, in the test with K562 [9], the inhibition at 10 µM came to 46%.
For `COc1cc2ncc(C#N)c(Nc3ccc(Cl)cc3Cl)c2cc1OC`, the IC50 is 4.67 nM in test [2] and 4.38 nM on Bcr/Abl fusion protein.
Turning to `COc1cc(Nc2c(C#N)cnc3cc(OCCCN4CCN(C)CC4)c(OC)cc23)c(Cl)cc1Cl` [BOSUTINIB], the values for the EC50 in the test on A549 [1], in the test on K562 [4] and with HCT-116 [5] were 970 nM, 690 nM and 3420 nM, respectively. In addition, the IC50 in [2] was 0.14 nM.
On to `C=CC(=O)N(c1cc(OC)ccc1Cl)c1c(C#N)cnc2cc(OCCCN3CCCCC3)c(OC)cc12`, for which the EC50 in the test with A549 [1] turned out to be 8900 nM; with MCF7 [3] it was 9450 nM; in the test on K562 [4] it was 9760 nM. Moreover, the IC50 worked out at 132 nM in test [2] and 112 nM at Bcr/Abl fusion protein.
For `COc1ccc(Cl)c(Nc2c(C#N)cnc3cc(OCCCN4CCCCC4)c(OC)cc23)c1`, the EC50 in the test on A549 [1] was 7870 nM; in the test with K562 [4] it was 8070 nM. Further, the inhibition at 10 µM in the test with MCF7 [7] is 29%. The IC50 amounted to 0.35 nM in test [2] and 0.3 nM on Bcr/Abl fusion protein.
For the compound `C=CC(=O)N(c1ccc(Br)cc1Br)c1c(C#N)cnc2cc(OC)c(OC)cc12`, the IC50 in test [2] was 8520 nM; on Bcr/Abl fusion protein, > 10000 nM.
With `COc1cc(N(C(C)=O)c2c(C#N)cnc3cc(OCCCN4CCCCC4)c(OC)cc23)c(Cl)cc1Cl`, the inhibition at 10 µM stood at 34% with MCF7 [7], 34% in the test with HCT-116 [10], 28% in the test with A549 [8] and 31% with K562 [9]. Besides, the IC50 in test [2] stood at 770 nM; on Bcr/Abl fusion protein, 1100 nM.
